# Assay results: patent US20090170091A1, “Method For Predicting Biological Systems Responses” (priority 2006, published 2009)
# Read-outs that look alike come from different tables or passages of the source.
# Columns and labels:
# HeLa cells = HeLa cells after camptothecin treatment; mRNA abundance; cited from earlier work
# HepG2 cells = experiment: CellCipher cytotox profile, multiplexed HCS toxicity panel (11 cytotoxicity parameters, two plate assay); format: cell-based
# Excerpt: This example pertains to a multiplexed toxicity HCS profiling panel. It describes the performance of a specific CellCipher™ cytotox profile which is designed to measure 11 cytotoxicity parameters using a two plate assay.
# Assay and Reagent Specifications. […] The antibody and fluorescent indicators of cell physiology reagent specifications for Cytotox Profile Plate 1 are contained in Table 7 whereas the antibody and fluorescent indicators of cell physiology reagent specifications for Cytotox Profile Plate 2 are contained in Table 8. Finally, the assay buffer specifications for both Cytotox Profile Plates 1 and 2 are contained in Table 9.
# HepG2 cell handling and plating procedure. HepG2 cells were obtained from the American Type Cell Collection (cat no. HB-8065) and an original seed stock was prepared from one vial containing 1×10^+6 cells. From the seed stock, a working stock was prepared using standard procedures. Cells were thawed form the working stock when required and maintained in culture for 20 passages before being discarded. […]
# Cell plating for cytotox profile. For the cytotox profile, thin bottom 384-well microplates were used that are compatible with the high numerical aperture optics available on most HCS readers. […] Cells were passaged by trypsinization, including trituration, and viable cells counted. […]
smiles,measurement,setting,value
CC[C@@]1(O)C(=O)OCc2c1cc1n(c2=O)Cc2cc3ccccc3nc2-1 [camptothecin],"Double strand DNA break repair genes, change",HeLa cells,4.0%
same,"Histone genes, change",HeLa cells,8.1%
same,"Mitosis related genes, change",HeLa cells,9.7%
same,"NF-κB inducible genes, change",HeLa cells,12.5%
same,"Nuclear compartment genes, change",HeLa cells,16.5%
same,"p53-inducible genes, change",HeLa cells,28.1%
CC[C@H](C)C(=O)O[C@H]1C[C@@H](C)C=C2C=C[C@H](C)[C@H](CC[C@@H]3C[C@@H](O)CC(=O)O3)[C@H]21 [lovastatin],degree of activity (IC50 from KS dose-response fits) across the cytotox profile assays,"HepG2 cells; HepG2 cells, 11 features at 30 min, 24 h and 72 h, FIG. 9 heat map clusters",moderate degree of activity (in the μM range) in many assays
CC[C@H](C)C(=O)O[C@H]1CCC=C2C=C[C@H](C)[C@H](CC[C@@H]3C[C@@H](O)CC(=O)O3)[C@H]21 [mevastatin],degree of activity (IC50 from KS dose-response fits) across the cytotox profile assays,HepG2 cells,moderate degree of activity (in the μM range) in many assays
